Laboratory results reported in ChEMBL document CHEMBL3046927, “Synthesis and herbicidal activity of novel 5-chloro-3-fluoro-2-phenoxypyridines with a 1,3,4-oxadiazole ring” (J Pestic Sci, 2011).

Experiments:
Hordeum vulgare = experiment: Phytotoxicity against Hordeum vulgare (barley) plants assessed as crop damage at 125 g ai/ha measured after 3 weeks post compound treatment; type: organism-based; details: in vivo, 504 h
Triticum aestivum = experiment: Phytotoxicity against Triticum aestivum (wheat) plants assessed as crop damage at 125 g ai/ha measured after 3 weeks post compound treatment; type: organism-based; details: in vivo, 504 h
Sorghum halepense = experiment: Post-emergence herbicidal activity against Sorghum halepense (Johnson grass) at 125 g ai/ha measured after 3 weeks post compound treatment; type: functional
Echinochloa crus-galli = experiment: Post-emergence herbicidal activity against Echinochloa crus-galli (barnyard grass) at 125 g ai/ha measured after 3 weeks post compound treatment; type: functional
Avena fatua = experiment: Post-emergence herbicidal activity against Avena fatua at 125 g ai/ha measured after 3 weeks post compound treatment; type: functional

Compound	Activity (Hordeum vulgare) [%]	Activity (Triticum aestivum) [%]	Activity (Sorghum halepense) [%]	Activity (Echinochloa crus-galli) [%]	Activity (Avena fatua) [%]
C[C@@H](Oc1ccc(Oc2ncc(Cl)cc2F)cc1)c1nnc(SCc2ccccc2)o1	0	0	20	35	25
C[C@@H](Oc1ccc(Oc2ncc(Cl)cc2F)cc1)c1nnc(SCc2ccc(Cl)nc2)o1	0	0	30	40	30
C[C@@H](Oc1ccc(Oc2ncc(Cl)cc2F)cc1)c1nnc(SC(=O)c2ccccc2)o1	0	0	40	55	35
CCOC(=O)Sc1nnc([C@@H](C)Oc2ccc(Oc3ncc(Cl)cc3F)cc2)o1	0	0	40	60	45
CC(Sc1nnc([C@@H](C)Oc2ccc(Oc3ncc(Cl)cc3F)cc2)o1)C(=O)O (stereo not given in full)	15	0	60	70	70
C[C@@H](Oc1ccc(Oc2ncc(Cl)cc2F)cc1)c1nnc(SCC(=O)O)o1	15	0	45	60	50
CSc1nnc([C@@H](C)Oc2ccc(Oc3ncc(Cl)cc3F)cc2)o1	15	5	60	80	70
CCSc1nnc([C@@H](C)Oc2ccc(Oc3ncc(Cl)cc3F)cc2)o1	15	5	60	85	75
CCCCSc1nnc([C@@H](C)Oc2ccc(Oc3ncc(Cl)cc3F)cc2)o1	10	5	55	80	65
CCCCCSc1nnc([C@@H](C)Oc2ccc(Oc3ncc(Cl)cc3F)cc2)o1	5	0	50	70	55
C[C@@H](Oc1ccc(Oc2ncc(Cl)cc2F)cc1)c1nnc(SCC(N)=O)o1	0	0	40	45	40
CC(O)CSc1nnc([C@@H](C)Oc2ccc(Oc3ncc(Cl)cc3F)cc2)o1 (stereo not given in full)	0	0	30	40	35
C#CCSc1nnc([C@@H](C)Oc2ccc(Oc3ncc(Cl)cc3F)cc2)o1	0	0	80	100	95
C#CCOC(=O)[C@@H](C)Oc1ccc(Oc2ncc(Cl)cc2F)cc1 [CLODINAFOP PROPARGYL]	35	0	80	100	85
